In patent publication US12194058B2, “Cancer treatment regimen using anti-parasitic compounds and gut microbiome modulating agents” (FLORIDA ATLANTIC UNIVERSITY BOARD OF TRUSTEES, priority 2021, dated 2025):
Entries after “also recorded” stand apart in the source; their conditions may differ.

Experiments:
MDA-MB-468 cells = test: three-dimensional spheroid multi-parametric assay, MDA-MB-468; assay type: cell-based, human; conditions: MDA-MB-468 spheroids, 24 h; for activity / potency in cell line (image analysis, FIG. 2): average of three experiments
Description: Controls included 10 μM ABT737, 5 μg/mL 5-fluorouracil, 0.5 μg/mL doxorubicin, media alone, and solvent controls. After treatments, cells were labeled with the cell permeable nuclear stain Hoechst 33342, a marker for cleaved caspase 3/7, and the cell impermeable nucleic acid stain 7AAD for three hours. Cells were fixed then images acquired using a high content imager at 10× magnification. Scale bars represent 200 μm. The experiment was repeated 3 times.
MDA-MB-231 or MDA-MB-468 cells were plated on a black plate with clear bottom low adherence spheroid 384-well tissue culture plate (Corning 3830; Corning NY) at a concentration of 1,500 cells per well in ice-cold complete media without phenol red containing 2.5% matrigel (BD Biosciences, Billerica, MA) in a final volume of 30 μL/well and allowed to adhere for 24 hours. After confirming the formation of a spheroid, 30 μL of medium containing treatment at two times the final concentration was added. Treatments consisted of 10, 5, 2.5 or 1.25 μM oxfendazole (OFZ), 5, 2.5, 1.25 or 0.625 μM parbendazole (PBZ) or a combination 10/5, 5/2.5, 2.5/1.25 or 1.25/0.625 μM OFZ/PBZ. Controls included 10 μM ABT737, 5 μg/mL 5-fluorouracil, 0.5 μg/mL doxorubicin, media alone, and solvent controls. Solvent for drug treatments was 10% DMSO by weight. Cells were incubated with treatment for 24 h. At the end of this incubation 20 μL/well of a staining mixture containing 2 drops/mL NucBlue Live Cell Stain Hoechst 33342 (Molecular Probes, Eugene, OR), 5 μM CellEvent™ Caspase-3/7 Green Detection Reagent (Molecular Probes, Eugene, OR) and […] 7-amino-actinomycin D (7AAD; Sigma, St. Louis, MO) were added and allowed to incubate for 3 h. Cells were fixed with 4% paraformaldehyde by weight. Images were acquired using the ImageXpress® Micro XLS widefield HCS (Molecular Devices, Sunnyvale, CA), with a 10× Plan Fluor objective, binning at 2 and focusing on plate bottom, then offset by bottom thickness. A stack of 8 images separated by 10 μm starting at the well bottom and covering approximately the lower half of each spheroid were acquired. The best focus projection of this stack was analyzed using the Multi-Wavelength Cell Scoring Module of the MetaXpress 5.1.0.3 software (Molecular Devices, Sunnyvale, CA). The results were plotted using Microsoft excel (Redmond, WA). To normalize results, the solvent control values were subtracted from the 7AAD and the Caspase 3 percent positive results for treatment samples. Total cell count was expressed as a percentage comparing treatments to respective solvent controls. Compounds were tested in duplicate within plates. The in vitro effectiveness of BZs, either singly or in combination on tumor cytotoxicity using MDA-MB468 human breast cancer cell line spheroids was assessed. […]

[1] = system: 4T1Br4 mammary tumor cells; test: 4T1Br4 triple negative breast cancer model in BALB/c mice, oral gavage treatment
Description: Light to ten-week-old BALB/c mice (Charles River Laboratories; total of 48 mice) are orthotopically injected with 25,000-50,000 4T1Br4 mammary tumor cells in 100 microliters unilaterally into 4th mammary fat pad. Primary tumor growth was monitored by caliper measurements and biweekly body weight and wellness checks. When tumor size reached 0.5-0.7 cu cm, animals were divided into 4 experimental groups: 1) No Treatment (n=8), 2) Single OFZ Treatment (n=8), 3) Single CMP Treatment (n=16), 4) Combination CMP and OFZ/PBZ Treatment (n=16). Treatments started at 2 weeks post cancer cell inoculation. The following are the oral gavage doses: OFZ, 5 mg/kg; PBZ, 9 mg/kg; FBZ, 10 mg/kg; CMPs 10 mg/kg. All drugs are dissolved in sterile saline and final gavage volume is 200 microliters per mouse. […] When primary tumors reach 1 cu cm, they were excised under general anesthesia for all groups except for half of the animals in single CMP and combination CMP and BZ treatments. For those groups, half of the animals in each of these drug treatments received tumor excision surgery and for the remaining half, the primary tumors are untouched throughout the course of the experiment. Primary tumor size, percentage tumor growth compared to pre-treatment baseline, body weights and survival were assessed. Upon death, necropsy was conducted to assess metastatic tumor growth in distal organs. […] Treatment started 2 weeks past orthotopic cancer cell inoculation. […] Values are represented as means+SEMs.
Treatment started 2 weeks post-cancer cell inoculation. […] Data are represented as group averages+SEMs.
Measures were averaged for each week and represented as Means+SEMs. Treatment started two weeks post-inoculation with cancer cells.
Necropsy was then conducted on the animals that expired for assessment of gross metastasis in lungs, brain and liver that may be responsible for expiration of mice. Detailed necropsy was performed and archived for each animal.

[2] = cited from earlier work
MDA-MB-231 cells = test: three-dimensional spheroid multi-parametric assay, MDA-MB-231; assay type: cell-based, human; conditions: MDA-MB-231 spheroids, 24 h; for activity / potency in cell line (image analysis, FIG. 4): average of three experiments
Description: MDA-MB-231 or MDA-MB-468 cells were plated on a black plate with clear bottom low adherence spheroid 384-well tissue culture plate (Corning 3830; Corning NY) at a concentration of 1,500 cells per well in ice-cold complete media without phenol red containing 2.5% matrigel (BD Biosciences, Billerica, MA) in a final volume of 30 μL/well and allowed to adhere for 24 hours. After confirming the formation of a spheroid, 30 μL of medium containing treatment at two times the final concentration was added. Treatments consisted of 10, 5, 2.5 or 1.25 μM oxfendazole (OFZ), 5, 2.5, 1.25 or 0.625 μM parbendazole (PBZ) or a combination 10/5, 5/2.5, 2.5/1.25 or 1.25/0.625 μM OFZ/PBZ. Controls included 10 μM ABT737, 5 μg/mL 5-fluorouracil, 0.5 μg/mL doxorubicin, media alone, and solvent controls. Solvent for drug treatments was 10% DMSO by weight. Cells were incubated with treatment for 24 h. At the end of this incubation 20 μL/well of a staining mixture containing 2 drops/mL NucBlue Live Cell Stain Hoechst 33342 (Molecular Probes, Eugene, OR), 5 μM CellEvent™ Caspase-3/7 Green Detection Reagent (Molecular Probes, Eugene, OR) and […] 7-amino-actinomycin D (7AAD; Sigma, St. Louis, MO) were added and allowed to incubate for 3 h. Cells were fixed with 4% paraformaldehyde by weight. Images were acquired using the ImageXpress® Micro XLS widefield HCS (Molecular Devices, Sunnyvale, CA), with a 10× Plan Fluor objective, binning at 2 and focusing on plate bottom, then offset by bottom thickness. A stack of 8 images separated by 10 μm starting at the well bottom and covering approximately the lower half of each spheroid were acquired. The best focus projection of this stack was analyzed using the Multi-Wavelength Cell Scoring Module of the MetaXpress 5.1.0.3 software (Molecular Devices, Sunnyvale, CA). The results were plotted using Microsoft excel (Redmond, WA). To normalize results, the solvent control values were subtracted from the 7AAD and the Caspase 3 percent positive results for treatment samples. Total cell count was expressed as a percentage comparing treatments to respective solvent controls. Compounds were tested in duplicate within plates. The in vitro effectiveness of BZs, either singly or in combination on tumor cytotoxicity using MDA-MB468 human breast cancer cell line spheroids was assessed.
FIG. 3 illustrates the in vitro effectiveness of BZs, either singly or in combination on tumor cytotoxicity using MDA-MB4231 human breast cancer cell line spheroids. […] Images were analyzed to determine cell counts based on DNA (Hoechst 33342 stain; blue), those dying through apoptosis by following cleavage of caspase 3, and cells dead or dying as measured by the loss of their membrane integrity (7-aminoactinomycin; red). […]

[3] = cited from earlier work; remark: listed apart in the source

Structure (SMILES)	death by loss of membrane integrity (7AAD) (MDA-MB-468 cells)	activity / potency in cell line (image analysis, FIG. 2) (MDA-MB-468 cells)	time of expiration / euthanasia of representative mouse ([1]; days post cancer cell inoculation) [days]	lung metastasis at necropsy ([1]; gross necropsy)	cause of death of group ([1]; necropsy, listed as OFZ Alone)	angiogenesis at tumor / excision site ([1]; representative mouse)	splenomegaly ([1]; representative mouse, necropsy)	body weight across treatment weeks (FIG. 7) ([1]; tumor-bearing mice, measured biweekly)	survival at 6th week of treatment (animals remaining) ([1]; week 6 of treatment)	plasma half-life ([2]; in animals) [h]	tolerability / toxicity ([2]; in vivo)	caspase cleavage (induction of apoptosis) (MDA-MB-231 cells)	activity / potency in cell line (image analysis, FIG. 4) (MDA-MB-231 cells)	caspase 3/7 cleavage (MDA-MB-468 cells)	time to peak blood levels ([3]; after oral administration) [h]	time to full recovery of liver function after cessation of treatment ([3]; transient liver function suppression) [weeks]
COC(=O)Nc1nc2ccc([S+]([O-])c3ccccc3)cc2[nH]1 (stereo not shown) [OFZ, (5-(phyenylsulphinyl)-18-benzimidazole-2yl) carmabic acid methyl ester]	favoring death by loss of membrane integrity	active	32	extensive metastases in the mouse lungs	expired entirely due to lung metastasis; also recorded: metastatic process in the lungs as cause of death	angiogenesis is visible	instances of splenomegaly	significant decline in bodyweight measurements	deceased	8.5 to 11	extremely well-tolerated with no known toxicity	caused caspase cleavage	more modest activity			
CCCCc1ccc2nc(NC(=O)OC)[nH]c2c1 [PBZ, N-(6-butyl-1H-benzimidazol-2-yl) carbamic acid methyl ester]		active; also recorded: statistically significantly more potent than OFZ										caused caspase cleavage	statistically significantly more potent than OFZ	caused more caspase cleavage	6 to 8	≤ 2
